# Measurements from patent US12440570B2, “Conjugation of MCR1 ligand with cytotoxic drugs for treating skin cancer” (ARIZONA BOARD OF REGENTS ON BEHALF OF THE UNIVERSITY OF …, priority 2019, dated 2025).
# Read-outs that look alike come from different tables or passages of the source.
# How the values were obtained:
# A375 melanoma cells = test: cells; type: cell-based, human; conditions: XTT, 24 h incubation, read-out: IC50, A375 melanoma cell viability
# Experimental: A375 cells were seeded in 96 well plates at a density of around 10^5 cells per well in 95 μL of MEM medium and incubated for 24 h, Cells were treated with 5 μL of drugs in a final concentration of 0, 0.3 nM, 1 nM, 3 nM, 10 nM, 30 nM, 100 nM and 300 nM for 24 h. XTT solution was prepared by dissolving 4 mg XTT in 4 mL MEM medium. PMS solution was prepared by dissolving 3 mg of PMS in 1 mL of phosphate buffer saline (PBS). 10 μL of PMS solution was added to 4 mL of XTT solution, and 25 μL of the PMS/XTT mixture was added to each well. The plate was incubated at 37 ° C. for another 2 h culture. Absorbance was measured at 450 nm using a pQuant Universal Microplate Reader (Bio-Tek instruments, Inc., Winooski, VT). Absorbance from no-cells control was subtracted and the percentage of cell viability was calculated as the percentage of absorbance relative to cells treated with medium.
# [1] = cited from earlier work
# [2] = test system: A375 malignant melanoma cells; test: Live-cell confocal microscopy, fluorescence uptake by A375 cells; type: cell-based, human
# Experimental: (§1) 1 mL of A375 or HEK293 cell suspension (˜5×10^4 cells) were seeded in 35 mm No. 1.5 coverslip glass-bottomed microwell dish (MatTek) and cultured overnight. Cells were gently washed with PBS twice and treated with compound 2 (3 μM) with or without MT-II (30 μM) in phenol red-free, HEPES-supplemented DMEM. After incubation at 37° C. for indicated time, cells were washed three times with PBS before imaging. Images were taken with Zeiss LSM880 inverted confocal microscope with either bright field or laser at […] with 2% laser power and Plan-Apochromat 63×/1.4 Oil DIC M27 objective.
# human MC1R = target: T1, human MC1R (Homo sapiens, UniProt Q01726); test: Competitive binding assay with 125I labelled NDP-α-MSH on whole cells, MC1R; conditions: for Ki: HEK293 cells overexpressing human MC1R, 125I NDP-α-MSH; for displacement of NDP-α-MSH from MC1R: within micromolar range concentration
# T1 construct: expressed in transfected cells; host or cells: HEK293 (stably transfected)
# Experimental: Competitive binding assays were performed on whole cells. Stably transfected HEK293 cell lines overexpressing human MC1R, MC3R, MC4R or MC5R were seeded on 96-well plates 48 h before the assay and grown to 100,000 cells per well. For the assay, the medium was removed, and cells were washed twice with a binding buffer containing minimum essential medium with Earle's salt (MEM, GIBCO), 25 mM HEPES (pH 7.4), 0.2% bovine serum albumin, 1 mM 1,10-phenanthrolone, 0.5 mg/L leupeptin and 200 mg/L bacitracin. Cells were incubated with different concentrations of unlabeled test compounds and ^125I labelled NDP-α-MSH (PerkinElmer, 100,000 cpm/well, 0.1386 nM) for 40 min at 37° C. The medium was subsequently removed, and the cells were washed twice with the binding buffer. The cells were lysed by 50 μL of 0.1 mM NaOH and 50 μL of 1% Triton X-100. The plates were left dry overnight under the hood, and 50 μL of scintillation fluid (OptiPhase SuperMix, PerkinElmer) were added in each well. The radioactivity was measured using MicroBeta 2 microplate counter (PerkinElmer).
# [3] = test system: HEK293 kidney epithelial cells; test: Live-cell confocal microscopy, fluorescence uptake by HEK293 cells; type: cell-based; conditions: 3 μM, 2.5 h
# Experimental: as §1
# [4] = linear peptide; cited from earlier work
# T1 sequence (Q01726 whole entry): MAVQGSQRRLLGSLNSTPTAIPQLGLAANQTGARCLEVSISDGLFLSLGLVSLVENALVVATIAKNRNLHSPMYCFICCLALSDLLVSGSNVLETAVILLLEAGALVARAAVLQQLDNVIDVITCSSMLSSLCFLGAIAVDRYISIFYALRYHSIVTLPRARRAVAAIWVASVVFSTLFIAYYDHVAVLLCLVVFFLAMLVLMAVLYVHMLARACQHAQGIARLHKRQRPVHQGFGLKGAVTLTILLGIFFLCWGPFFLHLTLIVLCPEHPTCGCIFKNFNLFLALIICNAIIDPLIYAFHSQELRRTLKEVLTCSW
molecule,measurement,setting,value
"CC[C@@]1(O)C(=O)OCc2c1cc1n(c2=O)Cc2cc3ccccc3nc2-1 [CPT, camptothecin, reference compound]",IC50,"A375 melanoma cells; Homo sapiens, A-375",47 ± 2 nM
same,solubility,[1],poor solubility
CCCC[C@H](NC(=O)CCCCCNC(=O)[C@@H](N)CSSCCOC(=O)Oc1ccc2c(c1)Oc1cc(O)ccc1C21OC(=O)c2ccccc21)C(=O)N[C@H]1CC(=O)NCCCC[C@@H](C(N)=O)NC(=O)[C@H](Cc2c[nH]c3ccccc23)NC(=O)[C@H](CCCNC(=N)N)NC(=O)[C@@H](Cc2ccccc2)NC(=O)[C@H](Cc2c[nH]cn2)NC1=O (some centres unmarked) [fluorescein-MT-II (2)],fluorescence uptake by A375 cells,"[2]; 3 μM with 30 μM of MT-II, 2.5 h",not observed
same,fluorescence uptake by A375 cells,"[2]; 3 μM, 0.5 h",No significant fluorescence uptake
same,fluorescence uptake by A375 cells,"[2]; 3 μM, 2.5 h",strong fluorescence
same,time for release of fluorescein into A375,[2]; confocal microscopy,at least 90 minutes
same,Ki,human MC1R; read-out: Ki MC1R,172 nM
same,displacement of NDP-α-MSH from MC1R,human MC1R,fully displace
same,displacement of NDP-α-MSH from MC1R,human MC1R; listed as fluorescein-MT-II,fully displace NDP-α-MSH
same,fluorescence uptake by HEK293 cells compared to A375 cells,[3],much weaker fluorescence intensity
α-MSH,half-life,[4],around 10 minutes
CCCC[C@H](NC(=O)CCCCCNC(=O)[C@@H](N)CSSCCOC(=O)O[C@]1(CC)C(=O)OCc2c1cc1n(c2=O)Cc2cc3ccccc3nc2-1)C(=O)N[C@H]1CC(=O)NCCCC[C@@H](C(N)=O)NC(=O)[C@H](Cc2c[nH]c3ccccc23)NC(=O)[C@H](CCCNC(=N)N)NC(=O)[C@@H](Cc2ccccc2)NC(=O)[C@H](Cc2c[nH]cn2)NC1=O [CPT-MT-II (1)],IC50,A375 melanoma cells,16 nM
same,Ki,human MC1R; Ki MC1R,57 nM
same,"selectivity to MC1R as compared to MC3R, MC4R and MC5R",human MC1R; from Ki values,3-6 fold
